Like-named read-outs stand apart in the source and are kept apart here. Numbered stars: 1 amine (or outer) side, 2 acyl side, 3 side chain; on linkers, the order of the positions; unused ones are H or OH. Bridge positions count the residues as written; N and C are the ends. Peptide text beside a SMILES is read from it. Phenylene(1,4-NHCOCH2)2 = O=C(C[*:1])Nc1ccc(NC(=O)C[*:2])cc1
Legend:
MDM4 = target: T1, MDM4 (Homo sapiens, UniProt O15151, C17S); assay: Direct FP ternary complex formation, fluorescent MDM4 and beta-catenin; assay type: biochemical; conditions: fluorescent p53-binding domain of MDM4
T1 construct: 6×His-yBBr-3C (N, cleaved yes); made in house; host or cells: E. coli BL21 (DE3)
T1 sequence (O15151 14-111 C17S): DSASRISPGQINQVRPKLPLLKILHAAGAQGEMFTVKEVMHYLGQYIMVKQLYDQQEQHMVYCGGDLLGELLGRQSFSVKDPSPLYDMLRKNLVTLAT

β-catenin:MDM4 complex = target: T2, β-catenin:MDM4 complex (Homo sapiens, UniProt O15151+P35222, C17S); assay: FP analysis of the β-catenin:MDM4 complex; assay type: biochemical; conditions: direct FP assay
T2 construct: 6×His-yBBr-TEV (N); 6×His-yBBr-3C (N, cleaved yes); made in house; host or cells: E. coli BL21 (DE3) pLysS (beta-catenin); E. coli BL21 (DE3) (MDM4)
T2 sequence (P35222 134-665): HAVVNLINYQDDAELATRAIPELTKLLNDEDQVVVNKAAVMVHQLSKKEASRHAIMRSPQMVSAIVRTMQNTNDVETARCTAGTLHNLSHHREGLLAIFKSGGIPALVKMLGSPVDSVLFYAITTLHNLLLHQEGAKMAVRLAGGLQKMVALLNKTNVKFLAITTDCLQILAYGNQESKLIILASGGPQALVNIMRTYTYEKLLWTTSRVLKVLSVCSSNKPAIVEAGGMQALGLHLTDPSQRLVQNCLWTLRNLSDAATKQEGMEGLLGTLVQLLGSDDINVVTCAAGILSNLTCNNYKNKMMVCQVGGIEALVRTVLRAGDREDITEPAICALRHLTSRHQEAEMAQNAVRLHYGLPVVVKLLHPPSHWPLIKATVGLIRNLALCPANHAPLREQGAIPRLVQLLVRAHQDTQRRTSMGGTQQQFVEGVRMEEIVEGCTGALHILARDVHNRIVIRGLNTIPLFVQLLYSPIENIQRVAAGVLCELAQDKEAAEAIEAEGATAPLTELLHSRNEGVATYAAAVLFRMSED
T2 sequence (O15151 14-111 C17S): T1 sequence (O15151 14-111 C17S)

β-catenin:MDM2 complex = target: T3, β-catenin:MDM2 complex (Homo sapiens, UniProt P35222+Q00987); assay: FP analysis of the β-catenin:MDM2 complex; assay type: biochemical; conditions: read-out: EC50 of cooperative interaction between MDM2 and the Armadillo domain of β-catenin
T3 construct: 6×His-yBBr-TEV (N); 6×His-TEV (N, cleaved yes); made in house; host or cells: E. coli BL21 (DE3) pLysS (beta-catenin); E. coli BL21 (DE3) (MDM2)

PD-L1 = PD-L1 (Homo sapiens, UniProt Q9NZQ7)
beta-catenin = target: T4, beta-catenin (Homo sapiens, UniProt P35222); assay: KD (μM, SPR)
T4 construct: 10 nM full-length β-catenin (Uniprot ID P35222); 6×His-thrombin-T7-TEV (N); made in house; host or cells: E. coli BL21 (DE3) pLysS

MDM2 and β-catenin = target: T5, MDM2 and β-catenin (Homo sapiens, UniProt P35222+Q00987); assay: Direct FP ternary complex formation, fluorescent MDM2 and beta-catenin; assay type: biochemical; conditions: fluorescent p53-binding domain of MDM2
T5 construct: 6×His-TEV (N, cleaved yes); 6×His-yBBr-TEV (N); made in house; host or cells: E. coli BL21 (DE3) (MDM2); E. coli BL21 (DE3) pLysS (β-catenin)
T5 sequence (Q00987 17-111 limits assumed, one chain of several): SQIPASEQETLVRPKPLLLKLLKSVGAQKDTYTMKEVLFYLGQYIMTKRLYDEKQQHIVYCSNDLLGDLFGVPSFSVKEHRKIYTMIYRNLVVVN

T4 sequence (P35222 2-781 limits assumed): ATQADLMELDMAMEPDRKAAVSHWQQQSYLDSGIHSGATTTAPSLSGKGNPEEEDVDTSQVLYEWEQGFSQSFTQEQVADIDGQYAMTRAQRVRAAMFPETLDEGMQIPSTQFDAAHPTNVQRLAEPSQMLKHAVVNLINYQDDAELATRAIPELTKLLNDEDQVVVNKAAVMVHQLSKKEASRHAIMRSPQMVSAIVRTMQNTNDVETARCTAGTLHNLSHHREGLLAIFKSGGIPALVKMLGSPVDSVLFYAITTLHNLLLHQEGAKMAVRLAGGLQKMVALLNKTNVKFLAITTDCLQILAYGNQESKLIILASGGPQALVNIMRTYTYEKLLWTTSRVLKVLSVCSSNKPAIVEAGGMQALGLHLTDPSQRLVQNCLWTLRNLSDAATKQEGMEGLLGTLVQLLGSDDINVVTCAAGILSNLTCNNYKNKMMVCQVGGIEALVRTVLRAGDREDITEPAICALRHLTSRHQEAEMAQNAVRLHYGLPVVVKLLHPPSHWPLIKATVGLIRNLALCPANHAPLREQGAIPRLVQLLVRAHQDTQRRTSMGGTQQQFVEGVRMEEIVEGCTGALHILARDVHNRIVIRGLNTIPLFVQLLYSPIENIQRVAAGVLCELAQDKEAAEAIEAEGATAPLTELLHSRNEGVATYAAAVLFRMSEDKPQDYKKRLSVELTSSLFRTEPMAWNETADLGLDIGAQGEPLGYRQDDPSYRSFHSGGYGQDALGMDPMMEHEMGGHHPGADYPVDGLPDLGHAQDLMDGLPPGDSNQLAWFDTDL
Sequence of PD-L1 (Q9NZQ7 18-239): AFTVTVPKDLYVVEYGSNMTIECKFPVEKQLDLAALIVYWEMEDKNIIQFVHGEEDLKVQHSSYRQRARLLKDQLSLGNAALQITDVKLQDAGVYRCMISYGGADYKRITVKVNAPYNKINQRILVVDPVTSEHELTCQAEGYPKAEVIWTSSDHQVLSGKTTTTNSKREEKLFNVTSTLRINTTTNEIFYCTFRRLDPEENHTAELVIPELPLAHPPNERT
T3 sequence (Q00987 17-111 limits assumed, one chain of several): as the sequence (Q00987 17-111 limits assumed, one chain of several) above

Compound	ternary complex formation with MDM4 (MDM4)	promotion of interaction between MDM4 and β-catenin (β-catenin:MDM4 complex)	EC50 (β-catenin:MDM2 complex)	Kd (beta-catenin)	further results
CC(=O)N1CCC[C@H]1C(=O)N[C@@H](Cc1c[nH]c2ccccc12)C(=O)N[C@@H](CCCCN)C(=O)N[C@@H](Cc1ccc(O)cc1)C(=O)N[C@@H](CCC(=O)O)C(=O)N[C@@H](CCC(N)=O)C(=O)N[C@H](C(=O)N[C@H]1CSCC(=O)Nc2ccc(cc2)NC(=O)CSC[C@@H](C(=O)N[C@@H](CC(C)C)C(=O)N[C@@H](CO)C(=O)N[C@@H](CC(=O)O)C(=O)N[C@@H](CC(=O)O)C(=O)N[C@@H](Cc2c[nH]c3ccccc23)C(=O)N[C@@H](CC(=O)O)C(N)=O)NC(=O)[C@H](CCC(N)=O)NC(=O)[C@H](Cc2c[nH]c3ccccc23)NC(=O)[C@H](C)NC(=O)[C@H](C)NC(=O)[C@H](CCC(N)=O)NC(=O)[C@H](Cc2ccc(O)cc2)NC1=O)C(C)C [Helicon H330]	did not occur				
CC[C@H](C)[C@H](NC(=O)[C@H](C)NC(=O)[C@H](CCC(N)=O)NC(=O)[C@H](CCC(N)=O)NC(=O)[C@H](CCC(=O)O)NC(=O)[C@H](CCSC)NC(=O)[C@@H]1CCCN1C(C)=O)C(=O)N[C@H]1CSCC(=O)Nc2ccc(cc2)NC(=O)CSC[C@@H](C(=O)N[C@@H](CC(C)C)C(=O)N[C@@H](C)C(=O)N[C@@H](CC(=O)O)C(=O)N[C@@H](CC(=O)O)C(=O)N[C@@H](Cc2c[nH]c3ccccc23)C(=O)N[C@H](C(N)=O)[C@@H](C)O)NC(=O)[C@H](CCSC)NC(=O)[C@H](Cc2c[nH]c3ccccc23)NC(=O)[C@H](C)NC(=O)[C@H](C)NC(=O)[C@H](CCC(N)=O)NC(=O)[C@H](Cc2ccccc2)NC1=O [Helicon H329] (Ac-PMEQQAICFQAAWMCLADDWT-NH2; linker 8-15 via Phenylene(1,4-NHCOCH2)2)		not between MDM4 and β-catenin	10 to 100 nM		
DPAAADCQWAAFLCRVY					phage screen counts, Target Concentration 10 (PD-L1; PD-L1, target concentration 10): 0; phage screen counts, Target Concentration 30 (PD-L1; PD-L1, target concentration 30): 0; phage screen counts, Target Concentration 100 (PD-L1; PD-L1, target concentration 100): 12; phage screen counts, Target Concentration 300 (PD-L1; PD-L1, target concentration 300): 47; phage screen counts, Target Concentration 1000 (PD-L1; PD-L1, target concentration 1000, first column): 60; phage screen counts, Target Concentration 1000 (PD-L1; PD-L1, target concentration 1000, second column): 62
CC[C@H](C)[C@H](NC(=O)[C@H](C)NC(=O)[C@H](CCC(N)=O)NC(C)=O)C(=O)N[C@H]1CSCC(=O)Nc2ccc(cc2)NC(=O)CSC[C@@H](C(=O)N[C@@H](CC(C)C)C(=O)N[C@@H](C)C(=O)N[C@@H](CC(=O)O)C(=O)N[C@@H](CC(=O)O)C(=O)N[C@@H](Cc2c[nH]c3ccccc23)C(=O)N[C@H](C(N)=O)[C@@H](C)O)NC(=O)[C@H](CCSC)NC(=O)[C@H](Cc2c[nH]c3ccccc23)NC(=O)[C@H](C)NC(=O)[C@H](C)NC(=O)[C@H](CCC(N)=O)NC(=O)[C@H](Cc2ccccc2)NC1=O [Helicon H331]		not between MDM4 and β-catenin			
CC(=O)N[C@@H](CC(=O)O)C(=O)N1CCC[C@H]1C(=O)N[C@@H](C)C(=O)N[C@H](C(=O)N[C@@H](C)C(=O)N[C@@H](CCCNC(=N)N)C(=O)N[C@H]1CSCC(=O)Nc2ccc(cc2)NC(=O)CSC[C@@H](C(=O)N[C@@H](CCC(=O)O)C(=O)N[C@@H](CC(C)C)C(=O)N[C@H](C(N)=O)C(C)C)NC(=O)[C@H](Cc2c[nH]cn2)NC(=O)[C@H](CC(C)C)NC(=O)[C@H](C)NC(=O)[C@H](C)NC(=O)[C@H](Cc2c[nH]c3ccccc23)NC(=O)[C@H](CCC(=O)O)NC1=O)[C@@H](C)O [FP49251] (Ac-DPATARCEWAALHCELV-NH2; linker 7-14 via Phenylene(1,4-NHCOCH2)2)				0.4 ± 0.05 µM	
CC[C@H](C)[C@H](NC(=O)[C@@H]1CSCC(=O)Nc2ccc(cc2)NC(=O)CSC[C@H](NC(=O)[C@H](CC(=O)O)NC(=O)[C@H](CC(N)=O)NC(=O)[C@H](C)NC(=O)[C@H](C)NC(=O)[C@H](CO)NC(=O)[C@@H](NC(=O)[C@@H]2CCCN2C(C)=O)[C@@H](C)CC)C(=O)N[C@@H](Cc2ccccc2)C(=O)N[C@@H](CCCCN)C(=O)N[C@@H](C)C(=O)N[C@@H](C)C(=O)N[C@@H](Cc2c[nH]c3ccccc23)C(=O)N[C@@H](CCC(N)=O)C(=O)N1)C(=O)N[C@H](C(=O)N[C@@H](Cc1c[nH]c2ccccc12)C(=O)N[C@@H](CC(C)C)C(=O)N[C@@H](Cc1c[nH]cn1)C(=O)N[C@@H](CCC(N)=O)C(N)=O)[C@@H](C)CC [Helicon H332]	did not occur	not between MDM4 and β-catenin	10 to 100 nM		ternary complex formation, MDM2 and β-catenin (MDM2 and β-catenin): could promote ternary complex formation
CC[C@H](C)[C@H](NC(=O)[C@H](Cc1ccccc1)NC(=O)[C@H](Cc1ccc(O)cc1)NC(=O)[C@H](CC(C)C)NC(=O)[C@@H]1CSCC(=O)Nc2ccc(cc2)NC(=O)CSC[C@H](NC(=O)[C@H](CC(=O)O)NC(=O)[C@H](CCCNC(=N)N)NC(=O)[C@H](C)NC(=O)[C@H](CC(N)=O)NC(=O)[C@H](CCC(=O)O)NC(=O)[C@H](CO)NC(=O)[C@@H]2CCCN2C(C)=O)C(=O)N[C@@H](Cc2ccccc2)C(=O)N[C@@H](Cc2c[nH]c3ccccc23)C(=O)N[C@@H](C)C(=O)N[C@@H](C)C(=O)N[C@@H](Cc2c[nH]c3ccccc23)C(=O)N[C@@H](CC(=O)O)C(=O)N1)C(=O)N[C@@H](Cc1ccc(O)cc1)C(=O)N[C@@H](CCC(N)=O)C(N)=O [Helicon H333]		not between MDM4 and β-catenin			
CC(=O)N1CCC[C@H]1C(=O)N[C@@H](CC(N)=O)C(=O)N[C@@H](CC(C)C)C(=O)N[C@H](C(=O)NCC(=O)N[C@@H](C)C(=O)N[C@@H](CC(=O)O)C(=O)N[C@H]1CSCC(=O)Nc2ccc(cc2)NC(=O)CSC[C@@H](C(=O)N[C@@H](CC(C)C)C(=O)N[C@@H](CCC(N)=O)C(=O)N[C@@H](Cc2ccccc2)C(=O)N[C@@H](CC(C)C)C(=O)N[C@@H](Cc2c[nH]c3ccccc23)C(=O)N[C@@H](CC(=O)O)C(N)=O)NC(=O)[C@H](CCC(N)=O)NC(=O)[C@H](Cc2c[nH]c3ccccc23)NC(=O)[C@H](C)NC(=O)[C@H](C)NC(=O)[C@@H]2CCCN2C(=O)[C@H](Cc2ccccc2)NC1=O)[C@@H](C)O [Helicon H334]	did not occur	not between MDM4 and β-catenin	10 to 100 nM		ternary complex formation, MDM2 and β-catenin (MDM2 and β-catenin): could promote ternary complex formation
CC(=O)N[C@@H](CC(=O)O)C(=O)N1CCC[C@H]1C(=O)N[C@@H](C)C(=O)N[C@H](C(=O)N[C@@H](Cc1c[nH]cn1)C(=O)N[C@@H](C)C(=O)N[C@H]1CSCC(=O)Nc2ccc(cc2)NC(=O)CSC[C@@H](C(=O)N[C@@H](CCC(=O)O)C(=O)N[C@@H](CC(C)C)C(=O)N[C@H](C(N)=O)C(C)C)NC(=O)[C@H](Cc2c[nH]cn2)NC(=O)[C@H](CC(C)C)NC(=O)[C@H](C)NC(=O)[C@H](C)NC(=O)[C@H](Cc2c[nH]c3ccccc23)NC(=O)[C@H](CCC(=O)O)NC1=O)[C@@H](C)O [FP49252] (Ac-DPATHACEWAALHCELV-NH2; linker 7-14 via Phenylene(1,4-NHCOCH2)2)				0.3 ± 0.1 µM	
CC(=O)N[C@@H](CC(=O)O)C(=O)N1CCC[C@H]1C(=O)N[C@@H](C)C(=O)N[C@@H](C)C(=O)N[C@@H](Cc1c[nH]cn1)C(=O)N[C@@H](CCCNC(=N)N)C(=O)N[C@H]1CSCC(=O)Nc2ccc(cc2)NC(=O)CSC[C@@H](C(=O)N[C@@H](CCC(=O)O)C(=O)N[C@@H](CC(C)C)C(=O)N[C@H](C(N)=O)C(C)C)NC(=O)[C@H](Cc2c[nH]cn2)NC(=O)[C@H](CC(C)C)NC(=O)[C@H](C)NC(=O)[C@H](C)NC(=O)[C@H](Cc2c[nH]c3ccccc23)NC(=O)[C@H](CCC(=O)O)NC1=O [FP49250] (Ac-DPAAHRCEWAALHCELV-NH2; linker 7-14 via Phenylene(1,4-NHCOCH2)2)				1.4 ± 0.55 µM	
